# Counter-ions that a name gives are not always drawn. Like-named read-outs stand apart in the source and are kept apart here.
# How the values were obtained:
# Test in all cases: In vitro antibacterial activity on pathogenic bacteria for fish (agar MIC, Test Example 1)
# Type in all cases: cell-based
# [1] = tested on: Aeromonas hydrophila; conditions: 20 h; for MIC: Aeromonas hydrophila; for MIC (minimum growth-inhibition concentration): Mueller-Hinton agar
# Method: (§1) In vitro antibacterial activity on pathogenic-bacteria for fish
# (§2) Each of the test strains was cultured over-night, and each culture broth (containing about 10^6 cells/ml) was innoculated in Mueller-Hinton agar (DIFCO) supplied with 1.0-2.0% sodium chloride and containing the test compound at each specified concentration.
# [2] = tested on: Pasteurella piscicida; conditions: 20 h; for MIC: Photobacterium damselae; for MIC (minimum growth-inhibition concentration): Mueller-Hinton agar
# Method: as §1, §2
# [3] = tested on: Vibrio anguillarum; conditions: 20 h, 25-30 °C; for MIC: Vibrio anguillarum, read-out: MIC (minimum growth-inhibition concentration); for MIC (minimum growth-inhibition concentration): Mueller-Hinton agar
# Method: as §1, §2
# [4] = Vibrio anguillarum strain NA8340, Mueller-Hinton agar
# [5] = Vibrio anguillarum strain NA8341, Mueller-Hinton agar
# [6] = Vibrio anguillarum strain NA8346, Mueller-Hinton agar
# [7] = Vibrio anguillarum strain NA8347, Mueller-Hinton agar
# [8] = Vibrio anguillarum strain NH8410, Mueller-Hinton agar
# [9] = Aeromonas hydrophila strain C 44, 25-30 °C
# [10] = Aeromonas hydrophila strain KA8301, 25-30 °C
# [11] = Aeromonas hydrophila strain KA8414, 25-30 °C
# [12] = Aeromonas hydrophila strain KA8416, 25-30 °C
# [13] = Aeromonas hydrophila strain M 183, 25-30 °C
# [14] = Pasteurella piscicida strain EH8304, 25-30 °C
# [15] = Pasteurella piscicida strain EH8309, 25-30 °C
# [16] = Pasteurella piscicida strain EH8312, 25-30 °C
# [17] = Pasteurella piscicida strain NG8319, 25-30 °C
# [18] = Vibrio anguillarum strain NA8340
# [19] = Vibrio anguillarum strain NA8341
# [20] = Vibrio anguillarum strain NA8346
# [21] = Vibrio anguillarum strain NA8347
# [22] = Vibrio anguillarum strain NH8410
# [23] = Aeromonas hydrophila strain C 44, Mueller-Hinton agar, 25-30 °C, read-out: MIC (minimum growth-inhibition concentration)
# [24] = Aeromonas hydrophila strain KA8301, Mueller-Hinton agar, 25-30 °C, read-out: MIC (minimum growth-inhibition concentration)
# [25] = Aeromonas hydrophila strain KA8414, Mueller-Hinton agar, 25-30 °C, read-out: MIC (minimum growth-inhibition concentration)
# [26] = Aeromonas hydrophila strain KA8416, Mueller-Hinton agar, 25-30 °C, read-out: MIC (minimum growth-inhibition concentration)
# [27] = Aeromonas hydrophila strain M 183, Mueller-Hinton agar, 25-30 °C, read-out: MIC (minimum growth-inhibition concentration)
# [28] = Pasteurella piscicida strain EH8304, Mueller-Hinton agar, 25-30 °C, read-out: MIC (minimum growth-inhibition concentration)
# [29] = Pasteurella piscicida strain EH8309, Mueller-Hinton agar, 25-30 °C, read-out: MIC (minimum growth-inhibition concentration)
# [30] = Pasteurella piscicida strain EH8312, Mueller-Hinton agar, 25-30 °C, read-out: MIC (minimum growth-inhibition concentration)
# [31] = Pasteurella piscicida strain EH8313, Mueller-Hinton agar, 25-30 °C, read-out: MIC (minimum growth-inhibition concentration)
# [32] = Pasteurella piscicida strain NG8319, Mueller-Hinton agar, 25-30 °C, read-out: MIC (minimum growth-inhibition concentration)
SMILES,"MIC [3, 4] [µg/mL]","MIC [3, 5] [µg/mL]","MIC [3, 6] [µg/mL]","MIC [3, 7] [µg/mL]","MIC [3, 8] [µg/mL]","MIC (minimum growth-inhibition concentration) [1, 9] [µg/mL]","MIC (minimum growth-inhibition concentration) [1, 10] [µg/mL]","MIC (minimum growth-inhibition concentration) [1, 11] [µg/mL]","MIC (minimum growth-inhibition concentration) [1, 12] [µg/mL]","MIC (minimum growth-inhibition concentration) [1, 13] [µg/mL]","MIC (minimum growth-inhibition concentration) [2, 14] [µg/mL]","MIC (minimum growth-inhibition concentration) [2, 15] [µg/mL]","MIC (minimum growth-inhibition concentration) [2, 16] [µg/mL]","MIC (minimum growth-inhibition concentration) [2, 17] [µg/mL]","MIC (minimum growth-inhibition concentration) [3, 18] [µg/mL]","MIC (minimum growth-inhibition concentration) [3, 19] [µg/mL]","MIC (minimum growth-inhibition concentration) [3, 20] [µg/mL]","MIC (minimum growth-inhibition concentration) [3, 21] [µg/mL]","MIC (minimum growth-inhibition concentration) [3, 22] [µg/mL]","MIC [1, 23] [µg/mL]",further results
"O=C(O)c1cn(C2CC2)c2cc(N3CCNCC3)c(F)cc2c1=O [Compound A, hydrochloride of 1-cyclopropyl-6-fluoro-1,4-dihydro-4-oxo-7-piperazino-quinoline-3-carboxylic acid]",< 0.025,< 0.025,< 0.025,< 0.025,< 0.025,–,–,–,–,–,–,–,–,–,–,–,–,–,–,–,"MIC ([1]; read-out: MIC (minimum growth-inhibition concentration), Aeromonas hydrophila strain C 44, Mueller-Hinton agar, 25-30 °C): < 0.025 µg/mL; MIC ([1]; read-out: MIC (minimum growth-inhibition concentration), Aeromonas hydrophila strain KA8301, Mueller-Hinton agar, 25-30 °C): < 0.025 µg/mL; MIC ([1]; read-out: MIC (minimum growth-inhibition concentration), Aeromonas hydrophila strain KA8414, Mueller-Hinton agar, 25-30 °C): < 0.025 µg/mL; MIC ([1]; read-out: MIC (minimum growth-inhibition concentration), Aeromonas hydrophila strain KA8416, Mueller-Hinton agar, 25-30 °C): < 0.025 µg/mL; MIC ([1]; read-out: MIC (minimum growth-inhibition concentration), Aeromonas hydrophila strain M 183, Mueller-Hinton agar, 25-30 °C): < 0.025 µg/mL; MIC ([2]; read-out: MIC (minimum growth-inhibition concentration), Pasteurella piscicida strain EH8304, Mueller-Hinton agar, 25-30 °C): 0.05 µg/mL; MIC ([2]; read-out: MIC (minimum growth-inhibition concentration), Pasteurella piscicida strain EH8309, Mueller-Hinton agar, 25-30 °C): < 0.025 µg/mL; MIC ([2]; read-out: MIC (minimum growth-inhibition concentration), Pasteurella piscicida strain EH8312, Mueller-Hinton agar, 25-30 °C): 0.05 µg/mL; MIC ([2]; read-out: MIC (minimum growth-inhibition concentration), Pasteurella piscicida strain NG8319, Mueller-Hinton agar, 25-30 °C): < 0.025 µg/mL"
"O=C(O)c1cn(C2CC2)c2cc(N3CCNCC3)c(F)cc2c1=O [Compound B, monohydrate of hydrochloride of 1-cyclopropyl-6-fluoro-1,4-dihydro-4-oxo-7-piperazino-quinoline-3-carboxylic acid]",–,–,–,–,–,< 0.0125,< 0.0125,< 0.0125,< 0.0125,< 0.0125,0.025,< 0.0125,0.025,0.025,0.025,0.025,0.025,0.025,0.025,–,"MIC ([2]; read-out: MIC (minimum growth-inhibition concentration), Pasteurella piscicida strain EH8313, Mueller-Hinton agar, 25-30 °C): 0.025 µg/mL"
"CN1CCN(c2cc3c(cc2F)c(=O)c(C(=O)O)cn3C2CC2)CC1 [Compound C, hydrochloride of 1-cyclopropyl-6-fluoro-1,4-dihydro-4-oxo-7-(4-methylpiperazino)quinoline-3-carboxylic acid]",< 0.025,< 0.025,< 0.025,< 0.025,< 0.025,–,–,–,–,–,–,–,–,–,–,–,–,–,–,< 0.025,"MIC [1, 24]: < 0.025 µg/mL; MIC [1, 25]: < 0.025 µg/mL; MIC [1, 26]: < 0.025 µg/mL; MIC [1, 27]: < 0.025 µg/mL; MIC [2, 28]: 0.05 µg/mL; MIC [2, 29]: 0.05 µg/mL; MIC [2, 30]: 0.05 µg/mL; MIC [2, 31]: 0.05 µg/mL; MIC [2, 32]: 0.05 µg/mL"
"CCN1CCN(c2cc3c(cc2F)c(=O)c(C(=O)O)cn3C2CC2)CC1 [Compound E, dihydrate of hydrochloride of 1-cyclopropyl-6-fluoro-1,4-dihydro-4-oxo-7-(4-ethylpiperazino)-quinoline-3-carboxylic acid]",–,–,–,–,–,< 0.025,0.05,< 0.025,< 0.025,< 0.025,0.05,0.05,0.05,0.05,0.05,0.05,0.05,0.05,0.05,–,"MIC (minimum growth-inhibition concentration) ([2]; Pasteurella piscicida strain EH8313, 25-30 °C): 0.05 µg/mL"
"O=C(O)c1cn(C2CC2)c2cc(N3CCN(CCO)CC3)c(F)cc2c1=O [Compound F, hydrochloride of 1-cyclopropyl-6-fluoro-1,4-dihydro-4-oxo-7-(4-β-hydroxyethyl-piperazino)-quinoline-3-carboxylic acid]",0.1,0.1,0.1,0.05,0.1,–,–,–,–,–,–,–,–,–,–,–,–,–,–,< 0.025,"MIC [1, 24]: 0.05 µg/mL; MIC [1, 25]: < 0.025 µg/mL; MIC [1, 26]: < 0.025 µg/mL; MIC [1, 27]: < 0.025 µg/mL; MIC [2, 28]: 0.1 µg/mL; MIC [2, 29]: 0.1 µg/mL; MIC [2, 30]: 0.1 µg/mL; MIC [2, 31]: 0.1 µg/mL; MIC [2, 32]: 0.1 µg/mL"

# — patent publication US5281596A, “Antibacterial drugs for fish” (Bayer Aktiengesellschaft, priority 1986, dated 1994)
